Data reported in patent US8367873B2, “Phenyl-substituted bicyclooctane-1,3-dione derivatives” (Bayer Cropscience AG, priority 2008, dated 2013).

Assays:
Assay type in all cases: in vivo
[1] = tested on: monocotylidonous and dicotylidonous weed and crop plants; assay: Herbicidal pre-emergence action (other test plants); conditions: pre-emergence method, 80 g/ha, greenhouse, visual assessment vs untreated controls
How it was run: (§1)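 Visual percent effect relative to untreated controls (0% = like control, 100% = dead) assessed three weeks after treatment in the greenhouse. Compounds, as wettable powders in water (600 l/ha, 0.2% wetting agent), were sprayed at different amounts onto covering soil over seeds sown in sandy loam.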

Echinocloa crus-galli [2] = assay: Herbicidal post-emergence action; conditions: post-emergence method; for herbicidal effect against ECHCG (Echinochloa crus-galli): 80 g/ha
How it was run: (§2)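 Greenhouse-grown weeds were treated post-emergence at the one-leaf stage, two to three weeks after sowing in sandy loam. Compounds formulated as WP were sprayed at various rates in 600 l/ha water with 0.2% wetting agent. Damage was scored visually after about three weeks versus untreated controls (0% = like control, 100% = dead).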

Alopecurus myosuroides [3] = assay: Herbicidal post-emergence action; conditions: post-emergence method; for herbicidal effect against ALOMY (Alopecurus myosuroides): 80 g/ha
How it was run: as §2

Lolium multiflorum [4] = assay: Herbicidal post-emergence action; conditions: post-emergence method; for herbicidal effect against LOLMU (Lolium multiflorum): 80 g/ha
How it was run: as §2

Setaria viridis [5] = assay: Herbicidal post-emergence action; conditions: post-emergence method; for herbicidal effect against SETVI (Setaria viridis): 80 g/ha
How it was run: as §2

Echinocloa crus-galli [6] = assay: Herbicidal pre-emergence action; conditions: pre-emergence method, 80 g/ha, greenhouse, visual assessment vs untreated controls
How it was run: as §1

Alopecurus myosuroides [7] = assay: Herbicidal pre-emergence action; conditions: pre-emergence method, 80 g/ha, greenhouse, visual assessment vs untreated controls
How it was run: as §1

Lolium multiflorum [8] = assay: Herbicidal pre-emergence action; conditions: pre-emergence method, 80 g/ha, greenhouse, visual assessment vs untreated controls
How it was run: as §1

Setaria viridis [9] = assay: Herbicidal pre-emergence action; conditions: pre-emergence method, 80 g/ha, greenhouse, visual assessment vs untreated controls
How it was run: as §1

[10] = tested on: monocotylidonous and dicotylidonous weed and crop plants; assay: Herbicidal post-emergence action (other test plants); conditions: post-emergence method; for herbicidal effect against AVEFA (Avena fatua): 80 g/ha
How it was run: as §2

cereals = assay: Container trials with cereals in the greenhouse, use of safeners (Mefenpyr 1 day prior to herbicide application)
Protocol: Seeds of monocotylidonous and dicotylidonous weed and crop plants are placed in sandy loam in wood fibre pots, covered with soil and cultivated in a greenhouse under good growth conditions. Two to three weeks after sowing, the test plants are treated at the one-leaf stage. The test compounds, formulated as wettable powders (WP), are then with a water application rate of 600 l/ha (converted), with 0.2% of wetting agent added, sprayed onto the green parts of the plants in different amounts. After the test plants have been kept in the greenhouse under optimum growth conditions for about three weeks, the effect of the preparations is assessed visually in comparison to untreated controls (herbicidal effect in percent: 100% effect=the plants have died, 0% effect=like control plants).
If it is to be additionally tested as to whether safeners can improve the plant compatibility of test substances in the case of crop plants, the following options are used for applying the safeners: • Seeds of the crop plants are, before sowing, dressed with safener substance (the amount of safener stated in percent, based on the weight of the seed) • Before the application of the test substances, the crop plants are sprayed with the safener at a certain application rate per hectare (usually one day before the application of the test substances) • The safener is applied together with the test substance as a tank mix (the amount of safener stated in g/ha or as a ratio, based on the herbicide).
Container Trials with Cereals in the Greenhouse

[11] = 28 days after application, 12.5 g of a.i./ha
[12] = 28 days after application, 25 g of a.i./ha
[13] = 28 days after application, 50 g of a.i./ha
[14] = 28 days after application, 100 g of a.i./ha
[15] = 10 days after application, 12.5 g of a.i./ha
[16] = 10 days after application, 25 g of a.i./ha
[17] = 10 days after application, 50 g of a.i./ha

Row | SMILES | herbicidal effect AVEFA [1] [%] | herbicidal effect against ECHCG (Echinochloa crus-galli) (Echinocloa crus-galli [2]) [%] | herbicidal effect against ALOMY (Alopecurus myosuroides) (Alopecurus myosuroides [3]) [%] | herbicidal effect against LOLMU (Lolium multiflorum) (Lolium multiflorum [4]) [%] | herbicidal effect against SETVI (Setaria viridis) (Setaria viridis [5]) [%] | herbicidal effect ECHCG (Echinocloa crus-galli [6]) [%] | herbicidal effect ALOMY (Alopecurus myosuroides [7]) [%] | herbicidal effect LOLMU (Lolium multiflorum [8]) [%] | herbicidal effect SETVI (Setaria viridis [9]) [%] | herbicidal effect against AVEFA (Avena fatua) [10] [%] | Summer barley observed (%) (cereals; [12]) | Summer barley observed (%) (cereals; [13]) | Summer barley observed (%) (cereals; [14]) | Summer wheat observed (%) (cereals; [11]) | Summer wheat observed (%) (cereals; [12]) | Summer wheat observed (%) (cereals; [13]) | Summer wheat observed (%) (cereals; [14]) | Summer wheat observed (%) (cereals; [15]) | Summer wheat observed (%) (cereals; [16]) | Summer wheat observed (%) (cereals; [17]) | other results
1 | CCc1cc(C)cc(CC)c1C1=C([O-])C2CC3(CC2C1=O)OC(C)CC(C)O3.[Na+] (mixture of isomers) [I-f-19] | 60 | 100 | 100 | 100 | 100 | 100 | 100 | 100 | 100 | 100 | 10 | 20 | 50 | 20 | 90 | 97 | 99 | – | – | – | Summer barley observed (%) (cereals; [11]): 10%
2 | CCc1cc(C)cc(CC)c1C1=C(O)C2CC3(CC2C1=O)OCC(C)O3 (mixture of isomers) [I-a-10] | 50 | 100 | 90 | 100 | 90 | 80 | 70 | 100 | 60 | 80 | – | – | – | – | – | – | – | 30 | 50 | 60 | –
3 | CCc1cc(C)cc(CC)c1C1=C(O)[C@H]2CC3(C[C@H]2C1=O)OCCCCO3 (relative stereo) [I-a-13] | 80 | 100 | 90 | 100 | 90 | 100 | 90 | 100 | 90 | 90 | – | – | – | – | – | – | – | 40 | 50 | 60 | –
4 | C=C1COC2(C[C@@H]3C(O)=C(c4c(CC)cc(C)cc4CC)C(=O)[C@@H]3C2)OC1 [I-a-3] | 80 | – | – | – | – | 100 | 100 | 100 | 100 | – | 20 | 60 | 70 | 10 | 60 | 70 | 85 | – | – | – | pest or weed control at 80 g/ha (Echinocloa crus-galli [2]; Echinochloa crus-galli, 504 h, read-out: herbicidal effect against ECHCG (Echinochloa crus-galli)): 100%; pest or weed control at 80 g/ha (Alopecurus myosuroides [3]; Alopecurus myosuroides, 504 h, read-out: herbicidal effect against ALOMY (Alopecurus myosuroides)): 90%; pest or weed control at 80 g/ha (Lolium multiflorum [4]; Lolium multiflorum, 504 h, read-out: herbicidal effect against LOLMU (Lolium multiflorum)): 100%; pest or weed control at 80 g/ha (Setaria viridis [5]; Setaria viridis, 504 h, read-out: herbicidal effect against SETVI (Setaria viridis)): 100%; pest or weed control at 80 g/ha ([10]; 504 h, Avena fatua, read-out: herbicidal effect against AVEFA (Avena fatua)): 90%
5 | C=C1COC2(CC3C(=O)C(c4c(CC)cc(C)cc4CC)=C(OC(=O)C(C)C)C3C2)OC1 (centres unmarked) [I-b-13] | 80 | 100 | 100 | 100 | 100 | 100 | 100 | 100 | 100 | 100 | – | 20 | 50 | 20 | 40 | 80 | 85 | – | – | – | –
